{"source": "ChEMBL document CHEMBL3352057", "about": "“Novel fluorinated pyrrolo[1,2-a]pyrazine-2,6-dione derivatives: synthesis and anticonvulsant evaluation in animal models of epilepsy” (Bioorg Med Chem, 2014)", "key": {"Mus musculus [1]": {"tested_on": "Mus musculus", "experiment": "Anticonvulsant activity in albino CF1 mouse assessed as protection against maximal electroshock-induced seizures at 100 mg/kg, ip measured after 0.25 hr", "assay_type": "functional, organism-based", "design": "dose 100 mg/kg"}, "Mus musculus [2]": {"tested_on": "Mus musculus", "experiment": "Anticonvulsant activity in albino CF1 mouse assessed as protection against maximal electroshock-induced seizures at 100 mg/kg, ip measured after 0.5 hr", "assay_type": "functional, organism-based", "design": "dose 100 mg/kg"}, "Mus musculus [3]": {"tested_on": "Mus musculus", "experiment": "Anticonvulsant activity in albino CF1 mouse assessed as protection against maximal electroshock-induced seizures at 100 mg/kg, ip measured after 1 hr", "assay_type": "functional, organism-based", "design": "dose 100 mg/kg"}, "Mus musculus [4]": {"tested_on": "Mus musculus", "experiment": "Anticonvulsant activity in albino CF1 mouse assessed as protection against maximal electroshock-induced seizures at 100 mg/kg, ip measured after 4 hrs", "assay_type": "functional, organism-based", "design": "dose 100 mg/kg"}, "Mus musculus [5]": {"tested_on": "Mus musculus", "experiment": "Anticonvulsant activity in albino CF1 mouse assessed as protection against subcutaneous metrazol-induced seizures at 100 mg/kg, ip measured after 0.25 hr", "assay_type": "functional, organism-based", "design": "dose 100 mg/kg"}, "Mus musculus [6]": {"tested_on": "Mus musculus", "experiment": "Anticonvulsant activity in albino CF1 mouse assessed as protection against subcutaneous metrazol-induced seizures at 100 mg/kg, ip measured after 0.5 hr", "assay_type": "functional, organism-based", "design": "dose 100 mg/kg"}, "Mus musculus [7]": {"tested_on": "Mus musculus", "experiment": "Anticonvulsant activity in albino CF1 mouse assessed as protection against subcutaneous metrazol-induced seizures at 100 mg/kg, ip measured after 1 hr", "assay_type": "functional, organism-based", "design": "dose 100 mg/kg"}, "Mus musculus [8]": {"tested_on": "Mus musculus", "experiment": "Anticonvulsant activity in albino CF1 mouse assessed as protection against subcutaneous metrazol-induced seizures at 100 mg/kg, ip measured after 4 hrs", "assay_type": "functional, organism-based", "design": "dose 100 mg/kg"}, "Mus musculus [9]": {"tested_on": "Mus musculus", "experiment": "Neurotoxicity in albino CF1 mouse at 100 mg/kg, ip measured after 0.25 hr", "assay_type": "toxicity, organism-based", "design": "dose 100 mg/kg, route intraperitoneal", "details": "in vivo"}, "Mus musculus [10]": {"tested_on": "Mus musculus", "experiment": "Neurotoxicity in albino CF1 mouse at 100 mg/kg, ip measured after 0.5 hr", "assay_type": "toxicity, organism-based", "design": "dose 100 mg/kg, route intraperitoneal", "details": "in vivo"}, "Mus musculus [11]": {"tested_on": "Mus musculus", "experiment": "Neurotoxicity in albino CF1 mouse at 100 mg/kg, ip measured after 1 hr", "assay_type": "toxicity, organism-based", "design": "dose 100 mg/kg, route intraperitoneal", "details": "in vivo"}, "Mus musculus [12]": {"tested_on": "Mus musculus", "experiment": "Neurotoxicity in albino CF1 mouse at 100 mg/kg, ip measured after 4 hrs", "assay_type": "toxicity, organism-based", "design": "dose 100 mg/kg, route intraperitoneal", "details": "in vivo"}, "Mus musculus [13]": {"tested_on": "Mus musculus", "experiment": "Anticonvulsant activity in albino CF1 mouse assessed as protection against 32 mA current-induced seizures at 100 mg/kg, ip measured after 0.25 hr", "assay_type": "functional, organism-based", "design": "dose 100 mg/kg"}, "Mus musculus [14]": {"tested_on": "Mus musculus", "experiment": "Anticonvulsant activity in albino CF1 mouse assessed as protection against 32 mA current-induced seizures at 100 mg/kg, ip measured after 0.5 hr", "assay_type": "functional, organism-based", "design": "dose 100 mg/kg"}, "Mus musculus [15]": {"tested_on": "Mus musculus", "experiment": "Anticonvulsant activity in albino CF1 mouse assessed as protection against 32 mA current-induced seizures at 100 mg/kg, ip measured after 1 hr", "assay_type": "functional, organism-based", "design": "dose 100 mg/kg"}, "Mus musculus [16]": {"tested_on": "Mus musculus", "experiment": "Anticonvulsant activity in albino CF1 mouse assessed as protection against 32 mA current-induced seizures at 100 mg/kg, ip measured after 2 hrs", "assay_type": "functional, organism-based", "design": "dose 100 mg/kg"}, "Mus musculus [17]": {"tested_on": "Mus musculus", "experiment": "Anticonvulsant activity in albino CF1 mouse assessed as protection against 32 mA current-induced seizures at 100 mg/kg, ip measured after 4 hrs", "assay_type": "functional, organism-based", "design": "dose 100 mg/kg"}, "Mus musculus [18]": {"tested_on": "Mus musculus", "experiment": "Neurotoxicity in 32 mA current-induced seizure albino CF1 mouse model at 100 mg/kg, ip measured after 0.25 hr", "assay_type": "toxicity, organism-based", "design": "dose 100 mg/kg, route intraperitoneal", "details": "in vivo"}, "Mus musculus [19]": {"tested_on": "Mus musculus", "experiment": "Neurotoxicity in 32 mA current-induced seizure albino CF1 mouse model at 100 mg/kg, ip measured after 0.5 hr", "assay_type": "toxicity, organism-based", "design": "dose 100 mg/kg, route intraperitoneal", "details": "in vivo"}, "Mus musculus [20]": {"tested_on": "Mus musculus", "experiment": "Neurotoxicity in 32 mA current-induced seizure albino CF1 mouse model at 100 mg/kg, ip measured after 1 hr", "assay_type": "toxicity, organism-based", "design": "dose 100 mg/kg, route intraperitoneal", "details": "in vivo"}, "Mus musculus [21]": {"tested_on": "Mus musculus", "experiment": "Neurotoxicity in 32 mA current-induced seizure albino CF1 mouse model at 100 mg/kg, ip measured after 2 hrs", "assay_type": "toxicity, organism-based", "design": "dose 100 mg/kg, route intraperitoneal", "details": "in vivo"}, "Mus musculus [22]": {"tested_on": "Mus musculus", "experiment": "Neurotoxicity in 32 mA current-induced seizure albino CF1 mouse model at 100 mg/kg, ip measured after 4 hrs", "assay_type": "toxicity, organism-based", "design": "dose 100 mg/kg, route intraperitoneal", "details": "in vivo"}, "Rattus norvegicus [23]": {"tested_on": "Rattus norvegicus", "experiment": "Anticonvulsant activity in pilocarpine-induced status prevention Sprague-Dawley rat model assessed as weight change 24 hrs post-first stage 3 seizure of protected rat at 300 mg/kg, ip measured after 0.5 hr", "assay_type": "functional", "details": "route intraperitoneal"}, "Rattus norvegicus [24]": {"tested_on": "Rattus norvegicus", "experiment": "Anticonvulsant activity in pilocarpine-induced status prevention Sprague-Dawley rat model assessed as weight change 24 hrs post-first stage 3 seizure of non-protected rat at 300 mg/kg, ip measured after 0.5 hr", "assay_type": "functional", "details": "route intraperitoneal"}, "Mus musculus [25]": {"tested_on": "Mus musculus", "experiment": "Anticonvulsant activity in ip dosed albino CF1 mouse assessed as protection against maximal electroshock-induced seizures", "assay_type": "functional"}, "Mus musculus [26]": {"tested_on": "Mus musculus", "experiment": "Anticonvulsant activity in ip dosed albino CF1 mouse assessed as protection against subcutaneous metrazol-induced seizures", "assay_type": "functional"}, "[27]": {"experiment": "Neurotoxicity in ip dosed albino CF1 mouse", "assay_type": "toxicity, organism-based", "details": "in vivo"}, "Mus musculus [28]": {"tested_on": "Mus musculus", "experiment": "Anticonvulsant activity in ip dosed albino CF1 mouse assessed as protection against maximal electroshock-induced seizures measured as time to peak effect", "assay_type": "functional"}, "Mus musculus [29]": {"tested_on": "Mus musculus", "experiment": "Anticonvulsant activity in ip dosed albino CF1 mouse assessed as protection against 6 Hz current-induced seizures", "assay_type": "functional"}, "Mus musculus [30]": {"tested_on": "Mus musculus", "experiment": "Neurotoxicity in ip dosed 6 Hz current-induced seizure albino CF1 mouse model", "assay_type": "toxicity, organism-based", "details": "in vivo"}, "Mus musculus [31]": {"tested_on": "Mus musculus", "experiment": "Anticonvulsant activity in ip dosed albino CF1 mouse assessed as protection against 6 Hz current-induced seizures measured as time to peak effect", "assay_type": "functional"}, "Rattus norvegicus [32]": {"tested_on": "Rattus norvegicus", "experiment": "Anticonvulsant activity in ip dosed hippocampal kindled albino Sprague-Dawley rat seizure model", "assay_type": "functional", "details": "Hippocampus"}, "Rattus norvegicus [33]": {"tested_on": "Rattus norvegicus", "experiment": "Anticonvulsant activity in ip dosed hippocampal kindled albino Sprague-Dawley rat seizure model assessed as time of rest", "assay_type": "functional, Hippocampus"}}, "note": "Calls of active or inactive are those of the source. No cut-off for these calls is given here."}
{"compound": "O=C1NC(=O)[C@@H]2CCCN2[C@H]1c1ccc(F)cc1", "values": [{"measurement": "Activity", "setting": "Mus musculus [1]", "value": "Active"}, {"measurement": "Activity", "setting": "Mus musculus [2]", "value": "inactive"}, {"measurement": "Activity", "setting": "Mus musculus [3]", "value": "Active"}, {"measurement": "Activity", "setting": "Mus musculus [4]", "value": "inactive"}, {"measurement": "Activity", "setting": "Mus musculus [5]", "value": "Active"}, {"measurement": "Activity", "setting": "Mus musculus [6]", "value": "inactive"}, {"measurement": "Activity", "setting": "Mus musculus [7]", "value": "inactive"}, {"measurement": "Activity", "setting": "Mus musculus [8]", "value": "inactive"}, {"measurement": "Activity", "setting": "Mus musculus [9]", "value": "Non-toxic"}, {"measurement": "Activity", "setting": "Mus musculus [10]", "value": "Non-toxic"}, {"measurement": "Activity", "setting": "Mus musculus [11]", "value": "Non-toxic"}, {"measurement": "Activity", "setting": "Mus musculus [12]", "value": "Non-toxic"}, {"measurement": "Activity", "setting": "Mus musculus [13]", "value": "Active"}, {"measurement": "Activity", "setting": "Mus musculus [14]", "value": "inactive"}, {"measurement": "Activity", "setting": "Mus musculus [15]", "value": "inactive"}, {"measurement": "Activity", "setting": "Mus musculus [16]", "value": "inactive"}, {"measurement": "Activity", "setting": "Mus musculus [17]", "value": "inactive"}, {"measurement": "Activity", "setting": "Mus musculus [18]", "value": "Non-toxic"}, {"measurement": "Activity", "setting": "Mus musculus [19]", "value": "Non-toxic"}, {"measurement": "Activity", "setting": "Mus musculus [20]", "value": "Non-toxic"}, {"measurement": "Activity", "setting": "Mus musculus [21]", "value": "Non-toxic"}, {"measurement": "Activity", "setting": "Mus musculus [22]", "value": "Non-toxic"}, {"measurement": "Activity", "setting": "Rattus norvegicus [23]", "value": -12, "unit": "g"}, {"measurement": "Activity", "setting": "Rattus norvegicus [24]", "value": -30, "unit": "g"}]}
{"compound": "CCC1(C)CC(=O)NC1=O", "note": "(configuration not stated) [ETHOSUXIMIDE]", "values": [{"measurement": "ED50", "setting": "Mus musculus [25]", "value": "> 3550", "unit": "µmol/kg"}, {"measurement": "ED50", "setting": "Mus musculus [26]", "value": 964, "unit": "µmol/kg"}, {"measurement": "TD50", "setting": "[27]", "value": 2420, "unit": "µmol/kg"}, {"measurement": "Time", "setting": "Mus musculus [28]", "value": 0.25, "unit": "h"}, {"measurement": "ED50", "setting": "Mus musculus [29]", "value": 1180, "unit": "µmol/kg"}, {"measurement": "ED50", "setting": "Mus musculus [30]", "value": 166, "unit": "µmol/kg"}, {"measurement": "Time", "setting": "Mus musculus [31]", "value": 0.25, "unit": "h"}]}
{"compound": "COC[C@@H](NC(C)=O)C(=O)NCc1ccccc1", "note": "[LACOSAMIDE]", "values": [{"measurement": "ED50", "setting": "Mus musculus [25]", "value": 18, "unit": "µmol/kg"}, {"measurement": "ED50", "setting": "Mus musculus [26]", "value": "> 100", "unit": "µmol/kg"}, {"measurement": "TD50", "setting": "[27]", "value": 107, "unit": "µmol/kg"}, {"measurement": "Time", "setting": "Mus musculus [28]", "value": 0.5, "unit": "h"}, {"measurement": "ED50", "setting": "Rattus norvegicus [32]", "value": 56, "unit": "µmol/kg"}, {"measurement": "Time", "setting": "Rattus norvegicus [33]", "value": 0.25, "unit": "h"}]}
